From patent publication US11492325B2, “Compounds as inhibitors of sodium channels” (Human BioMolecular Research Institute, priority 2016, dated 2022)
Like-named read-outs stand apart in the source and are kept apart here.

Columns and labels:
[1] = tested on: normal human induced pluripotent stem cell (hiPSC) cardiomyocyte; conditions: for WT-Fold Prolongation: APD; for WT-Cessation Dose (μM): cessation of beating
[2] = tested on: cardiomyocytes derived from hiPSCs from a LQTS3 patient; conditions: for LQT-IC50 (uM)-Shortening: APD shortening
[3] = WT cardiomyocytes, AP prolongation
[4] = LQT-3 cardiomyocytes, AP shortening
[5] = LQT-3 cardiomyocytes, cessation of beating

| Cessation of Beating ([1]; normal hiPSC cardiomyocytes) | LQT-Cessation Dose ([2]; LQT3 cardiomyocytes) | Compound | WT-Fold Prolongation ([1]; normal hiPSC cardiomyocytes) | WT-Prolongation Dose ([1]; normal hiPSC cardiomyocytes) | LQT-Fold Shortening ([2]; LQT3 cardiomyocytes) | LQT-Shortening Dose ([2]; LQT3 cardiomyocytes) | other results |
| --- | --- | --- | --- | --- | --- | --- | --- |
| None | None | CC(N)COc1ccccc1C(F)(F)F (stereo not drawn) [Compound 51, 1-(2-(Trifluoromethyl)phenoxy)propan-2-amine] | None | None | 1.37 | – | – |
| 133 µM | 7.4 µM | Cc1cccc(C)c1OCC(C)NCCc1ccccc1 (stereo not drawn) [Compound 44, 1-(2,6-dimethylphenoxy)-N-(2-phenylethyl)propan-2-amine] | 2.698 | – | 1.7 | – | WT-EAD Dose ([1]; normal hiPSC cardiomyocytes): 22 µM |
| – | – | Cc1cc(C)cc(OCC(N)c2ccccc2)c1 (stereo not drawn) [Compound 104b] | – | – | – | – | EC50 ([2]; read-out: LQT-EC50 (μM)-Shortening, 'No AP' wraps to 'No AP shortening'): 0.87 µM |
| None | 133 µM | CCCNC(COc1cccc(C)c1C)c1ccccc1 (stereo not drawn) [Compound 31, 2-(2,3-dimethylphenoxy)-N-propyl-1-phenylethanamine] | None | None | None | None | – |
| – | 66 µM | Cc1cc(C)cc(OCC(NCCN2CCOCC2)c2ccccc2)c1 (stereo not drawn) [Compound 98] | 1.54 | – | 1.3 | – | – |
| 66 µM | 66 µM | Cc1ccc(C(N)COc2c(C)cccc2C)cc1 (stereo not drawn) [Compound 17, 2-(2,6-dimethylphenoxy)-1-p-tolylethanamine] | None | None | 1.58 | – | – |
| None | 22 µM | Cc1ccnc(OCC(N)c2ccccc2)c1 (stereo not drawn) [Compound 95, 2-((4-methylpyridin-2-yl)oxy)-1-phenylethan-1-amine] | 2.68 | – | 1.22 | – | WT-EAD Dose ([1]; normal hiPSC cardiomyocytes): 133 µM |
| 66 µM | 66 µM | Cc1cc(C)cc(OCC(NCCO)c2ccccc2)c1 (stereo not drawn) [Compound 92] | None | None | 1.41 | – | – |
| – | – | NC(COc1ccnc(C(F)(F)F)c1)c1ccccc1 (stereo not drawn) [Compound 128] | – | – | – | – | WT-EC50 (μM) Prolongation [1, 3]: Does Not Prolong AP; WT-Cessation Dose (μM) ([1]; WT cardiomyocytes): No cessation of beating; LQT-Fold Shortening ([2]; LQT-3 cardiomyocytes): 1.226; LQT-EC50 (μM) Shortening [2, 4]: Shortens |
| None | None | Cc1cccc(C)c1OCC(C)O (stereo not drawn) [Compound 37] | None | None | None | None | – |
| – | – | NC(COc1cncc(C(F)(F)F)c1)c1ccccc1 (stereo not drawn) [Compound 116] | – | – | – | – | WT-EC50 (μM) Prolongation [1, 3]: Does Not Prolong AP; LQT-Fold Shortening ([2]; LQT-3 cardiomyocytes): 1.422; LQT-EC50 (μM) Shortening [2, 4]: Shortens |
| – | – | NC(COc1cc(C(F)(F)F)cc(C(F)(F)F)c1)c1ccc2ccccc2c1 (stereo not drawn) [Compound 132] | – | – | – | – | WT-EC50 (μM) Prolongation [1, 3]: Does Not Prolong AP; LQT-Fold Shortening ([2]; LQT-3 cardiomyocytes): 1.205; LQT-EC50 (μM) Shortening [2, 4]: Shortens; LQT-Cessation Dose (μM) [2, 5]: No cessation of beating |
| – | – | COCCNC(COc1cnccc1C)c1ccccc1 (stereo not drawn) [Compound 123] | – | – | – | – | WT-EC50 (μM) Prolongation [1, 3]: Does Not Prolong AP; LQT-Fold Shortening ([2]; LQT-3 cardiomyocytes): 1.402; LQT-EC50 (μM) Shortening [2, 4]: Shortens |
| – | – | COCCNC(COc1ccc(C)nc1C)c1ccccc1 (stereo not drawn) [Compound 125] | – | – | – | – | WT-EC50 (μM) Prolongation [1, 3]: Does Not Prolong AP; LQT-Fold Shortening ([2]; LQT-3 cardiomyocytes): Does Not Shorten; LQT-Shortening Dose (μM) ([2]; LQT-3 cardiomyocytes): Does Not Shorten; LQT-EC50 (μM) Shortening [2, 4]: Does Not Shorten |
| – | None | Cc1cccc(C)c1OCC(O)C(C)(C)C (stereo not drawn) [Compound 22] | – | – | 1.29 | – | – |
| – | – | Cc1cc(C)cc(OCC(N)c2ccc3ccccc3c2)c1 (stereo not drawn) [Compound 135] | – | – | – | – | WT-EC50 (μM) Prolongation [1, 3]: Does Not Prolong AP; LQT-Fold Shortening ([2]; LQT-3 cardiomyocytes): 1.667; LQT-Shortening Dose ([2]; LQT-3 cardiomyocytes): 133 µM; LQT-EC50 (μM) Shortening [2, 4]: Shortens; LQT-Cessation Dose [2, 5]: 200 µM |
| – | – | COCCNC(COc1cnccc1C(F)(F)F)c1ccccc1 (stereo not drawn) [Compound 124] | – | – | – | – | WT-EC50 (μM) Prolongation [1, 3]: Does Not Prolong AP; LQT-Fold Shortening ([2]; LQT-3 cardiomyocytes): 1.601; LQT-EC50 (μM) Shortening [2, 4]: Shortens |
| None | None | CC(N)COc1ccccn1 (stereo not drawn) [Compound 48, (Pyridin-2-yloxy)propan-2-amine] | None | None | None | None | WT-Cessation Dose ([1]; pyridyl derivatives): No cessation of beating; WT-EC50 (μM) Prolongation ([1]; pyridyl derivatives): Does Not Prolong AP; LQT-EC50 (μM) Shortening ([2]; pyridyl derivatives): Does Not Shorten; LQT-Fold Shortening ([2]; pyridyl derivatives): Does Not Shorten; LQT-Shortening Dose ([2]; pyridyl derivatives): Does Not Shorten |
| 66 µM | 22 µM | OCCNC(COc1cc(C(F)(F)F)cc(C(F)(F)F)c1)c1ccccc1 (stereo not drawn) [Compound 93] | None | None | 1.5 | – | – |
| None | None | CCNC(C)COc1c(C)cccc1C (stereo not drawn) [Compound 41, 1-(2,6-dimethylphenoxy)-N-ethylpropan-2-amine] | 5.338 | – | None | None | WT-EAD Dose ([1]; normal hiPSC cardiomyocytes): 133 µM |
| None | None | C[C@@H](N)COc1ccccc1Cl [Compound 58] | 2.392 | – | None | None | WT-EAD Dose ([1]; normal hiPSC cardiomyocytes): 200 µM |
| – | – | Cc1cccc(C)c1OC[C@H](N)C1CC1.Cl [Compound 61] | 3.829 | – | None | None | Cessation of Beating [1]: None; WT-EAD Dose ([1]; human, 5 min): 66 µM; LQT-Cessation Dose ([2]; human, 5 min): 200 µM |
| – | – | Cc1ccc(OCC(N)c2ccccc2)c(C)n1 (stereo not drawn) [Compound 119] | – | – | – | – | WT-EC50 (μM) Prolongation [1, 3]: Does Not Prolong AP; WT-Cessation Dose (μM) ([1]; WT cardiomyocytes): No cessation of beating; LQT-Fold Shortening ([2]; LQT-3 cardiomyocytes): 1.123; LQT-EC50 (μM) Shortening [2, 4]: Shortens |
| – | – | NC(COc1ccc(C(F)(F)F)nc1)c1ccccc1 (stereo not drawn) [Compound 117] | – | – | – | – | WT-EC50 (μM) Prolongation [1, 3]: Does Not Prolong AP; LQT-Fold Shortening ([2]; LQT-3 cardiomyocytes): Does Not Shorten; LQT-Shortening Dose (μM) ([2]; LQT-3 cardiomyocytes): Does Not Shorten; LQT-EC50 (μM) Shortening [2, 4]: Does Not Shorten |
| None | None | NC(COc1ccccn1)c1ccccc1 (stereo not drawn) [Compound 20, 1-phenyl-2-(pyridin-2-yloxy)ethanamine] | None | None | None | None | WT-Cessation Dose ([1]; pyridyl derivatives): No cessation of beating; WT-EC50 (μM) Prolongation ([1]; pyridyl derivatives): Does Not Prolong AP; LQT-EC50 (μM) Shortening ([2]; pyridyl derivatives): Does Not Shorten; LQT-Fold Shortening ([2]; pyridyl derivatives): Does Not Shorten; LQT-Shortening Dose ([2]; pyridyl derivatives): Does Not Shorten |
| 200 µM | 200 µM | CCCNC(C)COc1c(C)cccc1C (stereo not drawn) [Compound 38, 1-(2,6-dimethylphenoxy)-N-propylpropan-2-amine] | 4.584 | – | 1.19 | – | WT-EAD Dose ([1]; normal hiPSC cardiomyocytes): 66 µM |
| 133 µM | 22 µM | CCNC(COc1cccc(C)c1C)c1ccccc1 (stereo not drawn) [Compound 33, 2-(2,3-dimethylphenoxy)-N-ethyl-1-phenylethanamine] | None | None | None | None | – |
| None | None | CC(=O)NC(C)COc1c(C)cccc1C (stereo not drawn) [Compound 53] | None | None | None | None | – |
| – | – | Cc1cccc(C)c1OCC(=NOCc1ccccc1)C1CC1 [Compound 46] | None | None | 1.67 | – | Cessation of Beating [1]: None; LQT-Cessation Dose [2]: None |

| Compound | Cessation of Beating ([1]; normal hiPSC cardiomyocytes) | LQT-Cessation Dose ([2]; LQT3 cardiomyocytes) | WT-Fold Prolongation ([1]; normal hiPSC cardiomyocytes) | WT-Prolongation Dose ([1]; normal hiPSC cardiomyocytes) | LQT-Fold Shortening ([2]; LQT3 cardiomyocytes) | LQT-Shortening Dose ([2]; LQT3 cardiomyocytes) | other results |
| --- | --- | --- | --- | --- | --- | --- | --- |
| Cc1ccc(OCC(N)c2ccccc2)cc1C.Cl (stereo not drawn) [Compound 75] | 66 µM | 66 µM | None | None | 1.370 | – | – |
| Cc1cccc(OCC(C)N)c1.Cl (stereo not drawn) [Compound 86] | None | None | 1.68 | – | 1.418 | – | WT-EAD Dose ([1]; normal hiPSC cardiomyocytes): 66 µM; LQT-IC50 (uM)-Shortening ([2]; LQT3 cardiomyocytes): Shortens |
| Cc1cccc(Cl)c1OCC(N)C1CCCCC1.Cl (stereo not drawn) [Compound 76] | 66 µM | 66 µM | None | None | 1.244 | – | – |
| Cc1ccc(OCC(N)C2CC2)cc1C.Cl (stereo not drawn) [Compound 77] | 66 µM | 200 µM | None | None | 1.18 | – | – |
| 2-(2,6-dimethylphenoxy)-1-(4-methoxyphenyl)ethanamine [Compound 14] | None | None | None | None | None | None | LQT-IC50 (uM)-Shortening ([2]; LQT3 cardiomyocytes): None |
| Cc1cc(OCC(N)c2ccccc2)cc(C)n1.Cl (stereo not drawn) [Compound 79] | None | None | 5.06 | – | 1.145 | – | WT-EAD Dose ([1]; normal hiPSC cardiomyocytes): 200 µM |
| Cc1ccc(OCC(C)N)c(C)c1.Cl (stereo not drawn) [Compound 64] | None | None | 2.621 | – | None | None | WT-EAD Dose ([1]; normal hiPSC cardiomyocytes): 133 µM |
